Measured values from the Kinase Knowledgebase extract (Sharma et al. 2016).

Target: PIK3CA (human) (UniProt P42336)
Test: Assessment of PI3KCA Kinase Activity

PIK3CA (human), sequence (P42336 whole entry, looked up): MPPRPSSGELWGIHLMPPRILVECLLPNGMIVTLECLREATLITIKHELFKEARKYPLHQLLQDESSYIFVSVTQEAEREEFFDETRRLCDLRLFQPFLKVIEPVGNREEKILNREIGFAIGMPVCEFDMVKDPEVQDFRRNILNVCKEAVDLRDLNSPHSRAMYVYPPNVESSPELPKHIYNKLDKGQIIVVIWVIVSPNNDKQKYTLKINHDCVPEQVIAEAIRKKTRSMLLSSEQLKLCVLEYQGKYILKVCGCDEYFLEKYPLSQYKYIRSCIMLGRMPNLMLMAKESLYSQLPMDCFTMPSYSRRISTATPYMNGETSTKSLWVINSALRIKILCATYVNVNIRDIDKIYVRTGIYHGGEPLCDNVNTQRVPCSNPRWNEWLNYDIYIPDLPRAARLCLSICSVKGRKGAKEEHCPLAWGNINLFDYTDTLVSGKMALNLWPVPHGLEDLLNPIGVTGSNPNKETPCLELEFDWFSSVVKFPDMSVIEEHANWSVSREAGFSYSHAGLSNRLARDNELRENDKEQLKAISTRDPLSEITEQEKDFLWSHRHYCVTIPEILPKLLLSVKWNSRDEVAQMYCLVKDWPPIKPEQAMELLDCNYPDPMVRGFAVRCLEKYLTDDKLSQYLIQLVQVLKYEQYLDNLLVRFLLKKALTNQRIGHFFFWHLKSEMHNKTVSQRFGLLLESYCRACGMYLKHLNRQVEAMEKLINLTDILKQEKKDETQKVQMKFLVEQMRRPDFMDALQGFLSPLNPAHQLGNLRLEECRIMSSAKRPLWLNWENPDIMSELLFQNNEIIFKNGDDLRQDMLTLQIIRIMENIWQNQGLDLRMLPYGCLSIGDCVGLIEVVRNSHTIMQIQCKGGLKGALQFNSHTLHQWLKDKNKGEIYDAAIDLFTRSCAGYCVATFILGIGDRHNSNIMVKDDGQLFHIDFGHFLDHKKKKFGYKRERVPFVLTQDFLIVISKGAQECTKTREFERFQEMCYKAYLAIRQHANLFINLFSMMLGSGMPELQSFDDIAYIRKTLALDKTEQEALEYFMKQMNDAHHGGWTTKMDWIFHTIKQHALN

IC50 [nM] | SMILES
100 to 1000 | CCOc1cccc(F)c1-c1nc(-c2c(C)nn3ccccc23)sc1-c1nc[nH]n1
< 100 | COC(=O)Nc1cc(-c2sc(-c3nnc[nH]3)c(-c3ccc(Cl)cc3Cl)c2C#N)ccn1
< 100 | COc1cccc(F)c1-c1nc(-c2c(C)nn3ccc(OCCN4CCN(C)CC4)cc23)sc1-c1nc[nH]n1
100 to 1000 | CNC(=O)Nc1cc(-c2sc(-c3ccn[nH]3)c(-c3ccc(Cl)cc3Cl)c2C#N)ccn1
< 100 | N#Cc1c(-c2ccnc(NC(=O)CO)c2)sc(-c2nnc[nH]2)c1-c1ccc(Cl)cc1Cl
100 to 1000 | CC(=O)Nc1cc(-c2sc(-c3nccn3Cc3ccccn3)c(-c3ccc(Cl)cc3Cl)c2C#N)ccn1
< 100 | CNc1cc(-c2sc(-c3nnc[nH]3)c(-c3ccc(Cl)cc3Cl)c2C#N)ccn1
100 to 1000 | N#Cc1c(-c2ccnc(NS(=O)(=O)c3ccccc3)c2)sc(-c2nnc[nH]2)c1-c1ccc(Cl)cc1Cl
< 100 | N#Cc1c(-c2ccnc(N)n2)sc(-c2nnc[nH]2)c1-c1ccc(Cl)cc1Cl
< 100 | COc1cccc(F)c1-c1nc(-c2c(C)nn3ccc(OC4CCN(C(C)=O)CC4)cc23)sc1-c1nc[nH]n1
100 to 1000 | CC(=O)Nc1cc(-c2nc(-c3ccccc3C(F)(F)F)c(-c3nnc[nH]3)s2)ccn1
100 to 1000 | CC(=O)Nc1cc(-c2nc(-c3ccc(N)nc3)c(-c3ncc[nH]3)s2)ccn1
< 100 | N#Cc1c(-c2ccnc(NCCO)c2)sc(-c2nnc[nH]2)c1-c1ccc(Cl)cc1Cl
100 to 1000 | CC(=O)Nc1cc(-c2nc(-c3ccc(Oc4ccccc4)cc3)c(-c3ncc[nH]3)s2)ccn1
< 100 | N#Cc1c(-c2ccnc(Nc3nccs3)c2)sc(-c2ncc[nH]2)c1-c1ccc(Cl)cc1Cl
< 100 | C=CCOc1nc(-c2c(C)nn3ccccc23)sc1-c1nnc[nH]1
< 100 | N#Cc1c(-c2ccnc(NC(=O)C3CC3)c2)sc(-c2ccn[nH]2)c1-c1ccc(Cl)cc1Cl
< 100 | Cc1nn2ccc(OCCN3CCCCC3)cc2c1-c1nc(-c2ccccc2)c(-c2nnc[nH]2)s1
< 100 | Cc1nn2ccc(OCCN3CCC(F)(F)CC3)cc2c1-c1nc(-c2ccccc2)c(-c2nc[nH]n2)s1
< 100 | O=C1CCc2c(-c3nc(-c4ccc(Cl)cc4Cl)c(-c4ncc[nH]4)s3)ccnc2N1
< 100 | COc1ccc(-c2nc(-c3ccnc(NC(C)=O)c3)sc2-c2ncc[nH]2)c(Cl)c1
100 to 1000 | CC(=O)Nc1cc(-c2nc(-c3ccc(C(=O)N4CCNCC4)cc3)c(-c3ncc[nH]3)s2)ccn1
< 100 | CNC(=O)Nc1cc(-c2sc(-c3nnc[nH]3)c(-c3ccc(Cl)cc3Cl)c2C#N)ccn1
100 to 1000 | Cc1nn2ccccc2c1-c1nc(-c2cccc3ncccc23)c(-c2nc[nH]n2)s1
< 100 | Cc1nn2ccc(OCCN3CCC(O)CC3)cc2c1-c1nc(-c2ccccc2)c(-c2nc[nH]n2)s1
< 100 | Cc1nn2ccccc2c1-c1nc(C2CCOCC2)c(-c2nnc[nH]2)s1
< 100 | Cc1nn2ccccc2c1-c1nc(-c2ccc(F)cc2)c(-c2nnc[nH]2)s1
< 100 | C/C=C/c1nc(-c2c(C)nn3ccccc23)sc1-c1nnc[nH]1
100 to 1000 | CCOc1nc(-c2ccnc(NC(=O)CC(C)C)c2)sc1-c1nnc[nH]1

More lines, now with the values behind:

SMILES | IC50 [nM]
CC(=O)Nc1cc(-c2sc(-c3cnc[nH]3)c(-c3ccc(Cl)cc3Cl)c2C#N)ccn1 | < 100
CC(=O)Nc1cc(-c2sc(-c3nnc[nH]3)c(-c3ccc(Cl)cc3Cl)c2C#N)ccn1 | < 100
CC(=O)Nc1cc(-c2nc(-c3ccc(Cl)cc3Cl)c(-c3ncc[nH]3)s2)c(C)cn1 | 100 to 1000
Cc1nn2ccc(OCCN3CCN(C)C(=O)C3)cc2c1-c1nc(-c2ccccc2)c(-c2nc[nH]n2)s1 | < 100
C=Cc1ccc2nc(C)c(-c3nc(-c4ccccc4)c(-c4nc[nH]n4)s3)n2c1 | < 100
CC(=O)Nc1cc(-c2nc(-c3ccccc3)c(-c3ncc[nH]3)s2)ccn1 | 100 to 1000
CC(=O)Nc1cc(-c2nc(-c3ccc(Cl)cc3Cl)c(-c3ncc[nH]3)s2)ccn1 | < 100
Cc1nn2ccccc2c1-c1nc(N(C)c2ccc(Cl)cc2)c(-c2nnc[nH]2)s1 | < 100
CCOc1nc(-c2ccnc(NC(=O)Cc3cccs3)c2)sc1-c1nnc[nH]1 | 100 to 1000
Cc1nn2ccc(OCc3ccc(C(F)(F)F)nc3)cc2c1-c1nc(-c2ccccc2)c(-c2nc[nH]n2)s1 | < 100
Cc1nn2ccc(OCCN3CCN(C)CC3)cc2c1-c1nc(-c2ccccc2)c(-c2nc[nH]n2)s1 | < 100
CC(C)(C)OC(=O)Nc1cc(-c2sc(-c3nnc[nH]3)c(-c3ccc(Cl)cc3Cl)c2C#N)ccn1 | 100 to 1000
Clc1ccc(-c2cc(-c3ccnc4[nH]cnc34)sc2-c2ncc[nH]2)c(Cl)c1 | < 100
Cc1nn2ccccc2c1-c1nc(-c2ccccc2F)c(-c2nnc[nH]2)s1 | < 100
CC(=O)Nc1cc(-c2nc(-c3cccc(C)c3)c(-c3ncc[nH]3)s2)ccn1 | 100 to 1000
CNc1nccc(-c2sc(-c3nnc[nH]3)c(-c3ccc(Cl)cc3Cl)c2C#N)n1 | < 100
Cc1nn2ccccc2c1-c1nc(-c2cccc(F)c2F)c(-c2nc[nH]n2)s1 | < 100
O=C(Nc1cc(-c2nc(-c3ccccc3)c(-c3nnc[nH]3)s2)ccn1)C1CC1 | < 100
COC(=O)Nc1cc(-c2cc(-c3ccc(Cl)cc3Cl)c(-c3ncc[nH]3)s2)ccn1 | < 100

SMILES | IC50 [nM]
N#Cc1c(-c2ccnc(NC(=O)c3ccncc3)c2)sc(-c2nnc[nH]2)c1-c1ccc(Cl)cc1Cl | 100 to 1000
Cc1nn2ccccc2c1-c1nc(-c2cnc3ccccc3c2)c(-c2nc[nH]n2)s1 | < 100
CNc1ncc(Cl)c(-c2sc(-c3nnc[nH]3)c(-c3ccc(Cl)cc3Cl)c2C#N)n1 | 100 to 1000
CC(=O)Nc1cc(-c2nc(-c3ccc(Cl)cc3Cl)c(-c3nc(C)c(C)[nH]3)s2)ccn1 | 100 to 1000
COc1ncccc1-c1nc(-c2ccnc(NC(C)=O)c2)sc1-c1nnc[nH]1 | 100 to 1000
Cc1nn2ccccc2c1-c1nc(-c2ccc(NC(=O)OCc3ccccc3)cc2)c(-c2nc[nH]n2)s1 | 100 to 1000
Cc1nn(C)c(C)c1-c1nc(-c2c(C)nn3ccccc23)sc1-c1nc[nH]n1 | < 100
CC(=O)Nc1cc(-c2nc(-c3ccc(Cl)cc3Cl)c(-c3nnc[nH]3)s2)ccn1 | < 100
Cc1nn2ccc(-c3cnn(C)c3)cc2c1-c1nc(-c2ccccc2)c(-c2nc[nH]n2)s1 | < 100
COc1ccc(F)c(F)c1-c1nc(-c2c(C)nn3ccccc23)sc1-c1nc[nH]n1 | 100 to 1000
Clc1cc(-c2nc(-c3ccccc3)c(-c3nnc[nH]3)s2)ccn1 | 100 to 1000
Clc1ccc(-c2cc(-c3ccnc4[nH]ccc34)sc2-c2ncc[nH]2)c(Cl)c1 | < 100
CC(=O)Nc1cc(-c2sc(-c3nccn3Cc3cccnc3)c(-c3ccc(Cl)cc3Cl)c2C#N)ccn1 | 100 to 1000
Cc1nn2ccc(OC3CCN(C(=O)CO)CC3)cc2c1-c1nc(-c2ccccc2)c(-c2nnc[nH]2)s1 | < 100
CC(=O)Nc1cc(-c2nc(-c3ccc(N(C)C)nc3)c(-c3ncc[nH]3)s2)ccn1 | 100 to 1000
COc1cncc(-c2nc(-c3ccnc(NC(C)=O)c3)sc2-c2ncc[nH]2)c1 | 100 to 1000
Cc1nn2ccc(OCCN3CCCCC3)cc2c1-c1nc(-c2ccccc2F)c(-c2nc[nH]n2)s1 | < 100
CCOc1nc(-c2ccnc(NC(=O)c3ccco3)c2)sc1-c1nnc[nH]1 | 100 to 1000
CC(=O)Nc1cc(-c2nc(-c3ccc(C(F)(F)F)cc3)c(-c3ncc[nH]3)s2)ccn1 | < 100
